In ChEMBL document CHEMBL4325841, “5-(4-Hydroxyphenyl)-3H-1,2-dithiole-3-thione-based fibrates as potential hypolipidemic and hepatoprotective agents” (2018) one finds Activity and inhibition in vivo data, which are given here for nine compounds.

Test [1] has as its system Mus musculus. Kind of test: Antihyperlipidemic activity in Triton WR-1339-induced hyperlipidemic mouse model assessed as decrease in serum MDA level at 13 mg/kg, po for 7 days and co-treated with Triton WR-1339 on day 6. In kind it is functional, organism-based.
Test [2] concerns Mus musculus. The test can be described thus: Antihyperlipidemic activity in Triton WR-1339-induced hyperlipidemic mouse model assessed as decrease in serum triglyceride level at 13 mg/kg, po for 7 days and co-treated with Triton WR-1339 on day 6. In kind it is functional, organism-based.
In test [3] the test system is Mus musculus. The test can be described thus: Antihyperlipidemic activity in Triton WR-1339-induced hyperlipidemic mouse model assessed as decrease in total cholesterol level at 13 mg/kg, po for 7 days and co-treated with Triton WR-1339 on day 6. In kind it is functional, organism-based.
For test [4], the system named is Mus musculus. Kind of test: Antihyperlipidemic activity in high fat diet-induced hyperlipidemic mouse model assessed as increase in HDL level at 13 mg/kg, po administered for last 30 days during 60 days of high fat diet feeding relative to control. In kind it is functional.
For test [5], the system named is Mus musculus. Kind of test: Antioxidant activity in high fat diet-induced hyperlipidemic mouse model assessed as increase in SOD level at 13 mg/kg, po administered for last 30 days during 60 days of high fat diet feeding relative to control. In kind it is functional.
Test [6] deals with Mus musculus. The test can be described thus: Antioxidant activity in high fat diet-induced hyperlipidemic mouse model assessed as increase in GSH-PX level at 13 mg/kg, po administered for last 30 days during 60 days of high fat diet feeding relative to control. In kind it is functional.
In test [7] the test system is Mus musculus. The test can be described thus: Antihyperlipidemic activity in high fat diet-induced hyperlipidemic mouse model assessed as reduction in total cholesterol level at 13 mg/kg, po administered for last 30 days during 60 days of high fat diet feeding relative to control. It is filed as functional.
The test system of test [8] is Mus musculus. Kind of test: In vivo anti-inflammatory activity in high fat diet-induced hyperlipidemic mouse model assessed as reduction in IL-6 level at 13 mg/kg, po administered for last 30 days during 60 days of high fat diet feeding relative to control. It is filed as functional.
Test [9] deals with Mus musculus. Kind of test: Antioxidant activity in high fat diet-induced hyperlipidemic mouse model assessed as reduction in MDA level at 13 mg/kg, po administered for last 30 days during 60 days of high fat diet feeding relative to control. In kind it is functional.
Test [10] relates to Mus musculus. The test can be described thus: Antihyperlipidemic activity in high fat diet-induced hyperlipidemic mouse model assessed as reduction in serum triglyceride level at 13 mg/kg, po administered for last 30 days during 60 days of high fat diet feeding relative to control. It is filed as functional.
For test [11], the system named is Mus musculus. Kind of test: Hepatoprotective activity in high fat diet-induced hyperlipidemic mouse model assessed as decrease in inflammatory cell infiltration at 13 mg/kg, po administered for last 30 days during 60 days of high fat diet feeding by H and E staining-based microscopic analysis. In kind it is functional, organism-based.
The test system of test [12] is Mus musculus. The test can be described thus: In vivo anti-inflammatory activity in high fat diet-induced hyperlipidemic mouse model assessed as reduction in TNF-alpha level at 13 mg/kg, po administered for last 30 days during 60 days of high fat diet feeding relative to control. It is filed as functional.
Test [13] relates to Mus musculus. The test can be described thus: Hepatoprotective activity in high fat diet-induced hyperlipidemic mouse model assessed as decrease in tissue hemorrhage at 13 mg/kg, po administered for last 30 days during 60 days of high fat diet feeding by H and E staining-based microscopic analysis. It is filed as functional, organism-based.
The subject of test [14] is Mus musculus. Kind of test: Antihyperlipidemic activity in high fat diet-induced hyperlipidemic mouse model assessed as LDL level at 13 mg/kg, po administered for last 30 days during 60 days of high fat diet feeding relative to control. In kind it is functional.
For test [15], the species on record is Mus musculus. The test can be described thus: animal or person. The conditions noted are these: po. It is filed as functional.
Description: Antihyperlipidemic activity in high fat diet-induced hyperlipidemic mouse model assessed as reduction in atherosclerosis index at 13 mg/kg, po administered for last 30 days during 60 days of high fat diet feeding relative to control
The test system of test [16] is Mus musculus. The test can be described thus: Hepatoprotective activity in high fat diet-induced hyperlipidemic mouse model assessed as inhibition of lipid accumulation at 13 mg/kg, po administered for last 30 days during 60 days of high fat diet feeding by oil-red O staining-based microscopic analysis. In kind it is functional, organism-based.
Test [17] concerns Mus musculus. Kind of test: Hepatoprotective activity in high fat diet-induced hyperlipidemic mouse model assessed as reduction in ALT level at 13 mg/kg, po administered for last 30 days during 60 days of high fat diet feeding relative to control. In kind it is functional.
In test [18] the test system is Mus musculus. The test can be described thus: Hepatoprotective activity in high fat diet-induced hyperlipidemic mouse model assessed as reduction in AST level at 13 mg/kg, po administered for last 30 days during 60 days of high fat diet feeding relative to control. It is filed as functional.

The source made the active and inactive calls. The rule behind the calls is not given here.

As for `CCOC(=O)C(C)Oc1ccc(-c2cc(=S)ss2)cc1` (stereo not given), the outcome in test [1] and in test [2] was Active.
For `CCOC(=O)CCCCOc1ccc(-c2cc(=S)ss2)cc1`, the result in [1], in test [2] and in test [3] was Active.
`CCOC(=O)CCCCCCOc1ccc(-c2cc(=S)ss2)cc1`: the outcome in [1], in test [2] and in test [3] was Active.
With `CC(C)OC(=O)C(C)(C)Oc1ccc(C(=O)c2ccc(Cl)cc2)cc1` [FENOFIBRATE], the result in test [1] and in [2] was Active. Moreover, the Activity in test [4] amounted to 19.4%; in test [5], 10.9%; in [6] it was 9.9%. Further, the result in test [3] was inactive.
In the case of `CCOC(=O)C(C)(C)Oc1ccc(-c2cc(=S)ss2)cc1`, the result in test [1] and in test [2] was Active.
Take `CCOC(=O)COc1ccc(-c2cc(=S)ss2)cc1`: the outcome in test [1] and in test [2] was Active.
`CCOC(=O)CCCCCOc1ccc(-c2cc(=S)ss2)cc1`: the inhibition in vivo at 13 mg/kg in test [7] came out at 12.5%; in [8] it was 18.4%; in test [9], 10.1%; in [10], 29.4%; in test [12] it was 31.8%; in test [14] it was 30.7%. Also, the inhibition in vivo at 13 mg/kg in [15] was 40.1%; in [17], 8.2%; in [18], 31.5 to 39%. The outcome in [1], in test [2], in [11], in test [13], in test [3] and in test [16] was Active. Besides, the Activity in test [4] is 21.4%; in test [5], 10.8%; in [6] it was 19.2%.
Regarding `CCOC(=O)C(CC)Oc1ccc(-c2cc(=S)ss2)cc1` (stereo not given), the outcome in [1] and in test [2] was Active.
Regarding `COc1ccc(-c2cc(=S)ss2)cc1`, the outcome in test [2] and in test [3] was inactive.
